In patent US6004994A, “Heterocyclic diarylmethylene derivatives, methods of preparing them and their uses in therapeutics” (Laboratoires UPSA, priority 1998, dated 1999):
pIC50: −log10 of the molar value.

Tests used:
COX-1 = target: T1, COX-1 (Ovis aries, UniProt P05979); assay: Inhibition of COX-1 enzymatic activity (PGE2 produced determined by EIA); format: biochemical, ram (purified enzyme from ram seminal vesicles); details: 10^-4 M; ram seminal vesicle COX-1, arachidonic acid 6 μM
T1 construct: purified enzyme from ram seminal vesicles; from tissue; host or cells: ram seminal vesicles
T1 sequence (P05979 25-600): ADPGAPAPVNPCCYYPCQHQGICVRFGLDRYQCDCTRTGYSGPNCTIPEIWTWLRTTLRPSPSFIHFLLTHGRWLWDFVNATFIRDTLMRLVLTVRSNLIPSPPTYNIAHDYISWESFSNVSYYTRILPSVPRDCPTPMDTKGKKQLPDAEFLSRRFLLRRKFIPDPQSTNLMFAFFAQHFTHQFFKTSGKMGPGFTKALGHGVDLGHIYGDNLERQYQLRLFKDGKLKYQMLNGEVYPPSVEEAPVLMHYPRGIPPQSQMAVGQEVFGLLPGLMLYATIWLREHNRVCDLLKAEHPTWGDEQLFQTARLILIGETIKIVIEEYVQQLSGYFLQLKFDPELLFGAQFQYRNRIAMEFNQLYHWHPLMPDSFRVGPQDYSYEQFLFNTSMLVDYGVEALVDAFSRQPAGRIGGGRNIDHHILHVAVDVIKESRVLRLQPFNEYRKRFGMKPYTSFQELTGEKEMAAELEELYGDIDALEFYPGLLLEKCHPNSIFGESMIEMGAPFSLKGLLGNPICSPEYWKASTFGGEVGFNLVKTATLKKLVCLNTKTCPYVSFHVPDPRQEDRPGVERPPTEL
Method: (§1) The molecule studied is preincubated for 10 minutes at 25° C. with 2 U of COX-1 (purified enzyme from ram seminal vesicles) or 1 U of COX-2 (purified enzyme from ewe placenta). Arachidonic acid (6 μM for COX-1, 4 μM for COX-2) is added to the reaction medium and incubation is carried out for 5 minutes at 25° C. When incubation has ended, the enzymatic reaction is stopped by the addition of 1 N HCl and the PGE2 produced is deter mined by EIA. […] For other examples, the results are expressed in the form of IC50, the concentration in μM corresponding to 50% inhibition of the maximal enzymatic activity upon COX-1 and COX-2 (n=1 to 4 determinations).

COX-2 = target: T2, COX-2 (Ovis aries, UniProt P79208); assay: Inhibition of COX-2 enzymatic activity (PGE2 produced determined by EIA); format: biochemical, ewe (purified enzyme from ewe placenta); details: ewe placenta COX-2, arachidonic acid 4 μM; for inhibition at 10 µM: 10^-5 M; for pIC50: n=1 to 4 determinations; for inhibition at 1 µM: at 10^-6 M
T2 construct: purified enzyme from ewe placenta; from tissue; host or cells: ewe placenta
T2 sequence (P79208 17-603): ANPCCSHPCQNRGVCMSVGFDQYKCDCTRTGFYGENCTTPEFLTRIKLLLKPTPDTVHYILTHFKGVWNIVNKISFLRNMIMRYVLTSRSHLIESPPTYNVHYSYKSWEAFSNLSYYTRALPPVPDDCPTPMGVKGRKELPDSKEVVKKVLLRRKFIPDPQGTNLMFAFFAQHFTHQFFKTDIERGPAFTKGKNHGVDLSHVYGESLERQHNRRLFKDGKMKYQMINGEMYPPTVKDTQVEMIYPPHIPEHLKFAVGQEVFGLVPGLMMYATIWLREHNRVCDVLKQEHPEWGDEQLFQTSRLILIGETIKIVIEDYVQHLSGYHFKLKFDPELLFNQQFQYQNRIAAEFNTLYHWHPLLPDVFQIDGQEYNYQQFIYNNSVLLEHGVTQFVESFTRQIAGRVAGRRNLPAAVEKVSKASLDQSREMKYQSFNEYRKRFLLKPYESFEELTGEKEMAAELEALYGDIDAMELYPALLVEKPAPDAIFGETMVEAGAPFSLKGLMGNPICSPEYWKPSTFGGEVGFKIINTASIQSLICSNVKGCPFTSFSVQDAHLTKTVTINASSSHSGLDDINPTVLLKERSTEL
Method: as §1

arthritis with kaolin = assay: Analgesic activity: arthritis with kaolin in rats; format: in vivo; details: rat, oral, thirty minutes after intra-articular kaolin; dose inducing 50% decrease of the maximal quotations of control
Method: The analgesic activity of the compounds of the Examples was evaluated according to the method of arthritis with kaolin.
The analgesic activity is evaluated in rats by the test of arthritis with kaolin. Thirty minutes after intra-articular administration of an aqueous 10% suspension of kaolin, the product is administered orally at a rate of 1 ml 100 g (n=10 animals per dose). The results are expressed in the form of ED50, the dose in mg/kg which induces 50% decrease of the maximal quotations obtained in the control batch, calculated by linear regression.

`CN1CC/C(=C(/c2ccc(Cl)cc2)c2ccc(S(C)(=O)=O)cc2)C1=O` [28 Z isomer] gave an inhibition at 100 µM (COX-1) of 6%, an inhibition at 10 µM (COX-2) of 77% and a pIC50 (COX-2) of 5.53.

`CS(=O)(=O)c1ccc(/C(=C2\CCN(C3CCCCC3)C2=O)c2ccc(Cl)cc2)cc1` [29 Z isomer] showed an inhibition at 100 µM (COX-1) of 72% and an inhibition at 10 µM (COX-2) of 86%.

Compound `CC(=O)OCCN1CC/C(=C(/c2ccc(Cl)cc2)c2ccc(S(C)(=O)=O)cc2)C1=O` [30 Z isomer] has an inhibition at 10 µM (COX-2) of 56%.

With `CS(=O)(=O)c1ccc(/C(=C2\CCN(Cc3ccccc3)C2=O)c2ccc(Cl)cc2)cc1` [31 Z isomer] the inhibition at 100 µM (COX-1) was 88%, the inhibition at 10 µM (COX-2) was 88% and the ED50 (arthritis with kaolin) was 18.5 mg/kg.

`CCN1CC/C(=C(/c2ccc(Cl)cc2)c2ccc(S(C)(=O)=O)cc2)C1=O` [32 Z isomer] showed an inhibition at 100 µM (COX-1) of 13%, an inhibition at 10 µM (COX-2) of 84% and a pIC50 (COX-2) of 5.60.

With `CN1CC/C(=C(\c2ccc(S(N)(=O)=O)cc2)c2ccc(Cl)c(Cl)c2)C1=O` [33 Z isomer] the inhibition at 1 µM (COX-2) was 70% and the pIC50 (COX-2) was 6.41.

For `CN1CC/C(=C(\c2ccc(S(C)(=O)=O)cc2)c2ccc(Cl)c(Cl)c2)C1=O` [53 Z isomer], the inhibition at 100 µM (COX-1) was 36% and the inhibition at 10 µM (COX-2) was 92%.

Compound `COc1ccc(/C(=C2/CCN(C)C2=O)c2ccc(S(C)(=O)=O)cc2)cc1` [55 E isomer] has an inhibition at 10 µM (COX-2) of 44%.

Work on `Cc1cc(/C(=C2/CCN(C)C2=O)c2ccc(S(C)(=O)=O)cc2)ccc1F` [56 Z isomer] yielded an inhibition at 10 µM (COX-2) of 53%.

With `CS(=O)(=O)c1ccc(C(=C2CCN(CCc3ccccc3)C2=O)c2ccc(Cl)cc2)cc1` [60 Z isomer] the inhibition at 100 µM (COX-1) was 32% and the inhibition at 1 µM (COX-2) was 52%.

`CS(=O)(=O)c1ccc(C(=C2CCN(Cc3ccccc3)C2=O)c2ccc(Cl)c(Cl)c2)cc1` [61 Z isomer] gave an inhibition at 1 µM (COX-2) of 80% and a pIC50 (COX-2) of 6.64.

`CS(=O)(=O)c1ccc(C(=C2CCN(Cc3cccc(Cl)c3)C2=O)c2ccc(Cl)cc2)cc1` [62 Z isomer] was tested, and the inhibition at 100 µM (COX-1) was 79% and the inhibition at 10 µM (COX-2) was 91%.

`CS(=O)(=O)c1ccc(C(=C2CCN(Cc3ccccc3Cl)C2=O)c2ccc(Cl)cc2)cc1` [63 Z isomer] gave an inhibition at 100 µM (COX-1) of 83% and an inhibition at 10 µM (COX-2) of 88%.

`Cc1cccc(CN2CCC(=C(c3ccc(Cl)cc3)c3ccc(S(C)(=O)=O)cc3)C2=O)c1` [64 Z isomer] was tested, and the inhibition at 10 µM (COX-2) was 59%.

`CS(=O)(=O)c1ccc(C(=C2CCN(Cc3ccc(Br)cc3)C2=O)c2ccc(Cl)cc2)cc1` [65 Z isomer] was tested, and the inhibition at 10 µM (COX-2) was 83%.

With `CS(=O)(=O)c1ccc(/C(=C2\N=C(c3ccccc3)OC2=O)c2ccc(Cl)cc2)cc1` [77 E isomer] the inhibition at 100 µM (COX-1) was 90%, the inhibition at 10 µM (COX-2) was 77% and the pIC50 (COX-2) was 5.55.

Work on `CS(=O)(=O)c1ccc(/C(=C2\SC(=S)NC2=O)c2ccc(Cl)cc2)cc1` [78 E isomer] yielded an inhibition at 100 µM (COX-1) of 37%, an inhibition at 10 µM (COX-2) of 72% and a pIC50 (COX-2) of 5.81.

`CS(=O)(=O)c1ccc(/C(=C2\CCSC2=O)c2ccc(Cl)cc2)cc1` [80 Z isomer] was tested, and the pIC50 (COX-2) was 6.92 and the ED50 (arthritis with kaolin) was 13.7 mg/kg.
